Reference: ChEMBL document CHEMBL1201862, “PubChem BioAssay data set” (2004)
The source made the active and inactive calls.

Experiments:
Streptococcus = assay: Group A Streptococcus viability loss, dose response, counter-screen for streptokinase expression inhibitor project, luminescence, BacTiterGlo (AID 1915); type: functional, organism-based;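 further: potency for reduction of bacterial viability or growth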
[1] = biological target: T1, Kappa-type opioid receptor (Homo sapiens, UniProt P41145); type: functional
Beta-galactosidase [2] = biological target: T2, Beta-galactosidase (Escherichia coli, UniProt Q8VNN2); assay: beta-galactosidase enzyme inhibitors and activators, dose response, artefact control for CCR6 antagonist project, biochemical, E. coli enzyme, set 3 (AID 504712); type: functional
[3] = test system: Streptococcus sp. 'group A'; assay: growth inhibition of control SK(-) GAS strain, dose response, counter-screen for streptokinase expression inhibitor project, luminescence, kanamycin, BacTiterGlo, confirmation (AID 1900); type: functional, organism-based
Beta-galactosidase [4] = biological target: T2, Beta-galactosidase; type: functional
[5] = biological target: T1, Kappa-type opioid receptor; type: functional; remark: listed apart in the source
[6] = (§1) Counterscreen for antagonists of the orexin 1 receptor (OX1R; HCRTR1): Fluorescence-based cell-based high throughput dose response assay to identify antagonists of the parental CHO cell line. [Related pubchem assays (depositor defined):AID434989, AID435008, AID463079, AID485270, AID492963, AID492964, AID492965, AID493232, AID504699, AID504701]; type: functional
[7] = biological target: T3, Orexin/Hypocretin receptor type 1 (Homo sapiens, UniProt O43613); assay: (§2) Fluorescence-based cell-based high throughput dose response assay for antagonists of the orexin 1 receptor (OX1R; HCRTR1). [Related pubchem assays (depositor defined):AID434989, AID435008, AID463079, AID485270, AID492963, AID492964, AID492965, AID493232, AID504717, AID504718]; type: functional
T3 sequence (O43613 whole entry): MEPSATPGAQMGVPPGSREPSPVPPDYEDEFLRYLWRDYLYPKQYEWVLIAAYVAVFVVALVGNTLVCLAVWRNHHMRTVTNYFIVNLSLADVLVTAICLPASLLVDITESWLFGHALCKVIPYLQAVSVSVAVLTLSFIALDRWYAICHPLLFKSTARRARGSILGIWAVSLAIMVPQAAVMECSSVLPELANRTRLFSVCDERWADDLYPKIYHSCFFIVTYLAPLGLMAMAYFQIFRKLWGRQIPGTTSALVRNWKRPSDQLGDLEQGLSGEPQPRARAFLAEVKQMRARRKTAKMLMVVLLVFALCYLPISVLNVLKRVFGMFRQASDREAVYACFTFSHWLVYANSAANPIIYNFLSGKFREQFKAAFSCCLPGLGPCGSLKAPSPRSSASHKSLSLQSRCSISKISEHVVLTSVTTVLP

CHO-K1 = assay: as §1, with “Homogeneous time resolved fluorescence (HTRF)-based” for “Fluorescence-based”, “cell-based” for “cell-based high throughput”, “CHO-K1” for “CHO”; type: functional; settings: Cricetulus griseus;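 further: potency for inhibition of ATP-stimulated IP1 production as antagonists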
[8] = biological target: T3, Orexin/Hypocretin receptor type 1; assay: as §2, with “Homogeneous Time Resolved Fluorescence (HTRF)-based” for “Fluorescence-based”; type: functional
Coagulation factor XII = biological target: T4, Coagulation factor XII (Homo sapiens, UniProt P00748); type: functional;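 further: activated factor XIIa alpha cleaving a fluorogenic AMC peptide substrate; inhibitor potency from loss of enzyme activity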
T4 sequence (P00748 whole entry): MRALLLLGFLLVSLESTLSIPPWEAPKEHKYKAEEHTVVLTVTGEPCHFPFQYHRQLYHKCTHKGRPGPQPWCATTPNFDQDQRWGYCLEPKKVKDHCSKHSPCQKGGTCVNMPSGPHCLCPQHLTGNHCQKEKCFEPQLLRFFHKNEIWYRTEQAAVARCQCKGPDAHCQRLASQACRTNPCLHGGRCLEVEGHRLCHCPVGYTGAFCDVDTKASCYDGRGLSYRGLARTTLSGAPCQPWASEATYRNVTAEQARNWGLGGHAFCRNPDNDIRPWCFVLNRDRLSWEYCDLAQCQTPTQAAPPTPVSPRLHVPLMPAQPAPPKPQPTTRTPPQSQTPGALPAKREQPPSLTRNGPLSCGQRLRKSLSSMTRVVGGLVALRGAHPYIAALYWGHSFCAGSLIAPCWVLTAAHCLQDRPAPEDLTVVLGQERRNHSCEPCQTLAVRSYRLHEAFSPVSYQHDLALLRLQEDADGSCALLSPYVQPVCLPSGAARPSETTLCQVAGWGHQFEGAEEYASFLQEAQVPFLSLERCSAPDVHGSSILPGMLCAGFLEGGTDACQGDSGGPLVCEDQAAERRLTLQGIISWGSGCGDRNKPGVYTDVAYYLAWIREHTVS

HEK293 = assay: inhibitors of LMP1-driven NF-kB reporter, dose response, cell-based, HEK293, luciferase, cherry-pick (AID 588343); type: functional; settings: Homo sapiens
Exodeoxyribonuclease V = biological target: T5, Exodeoxyribonuclease V (Escherichia coli (strain K12), UniProt P04993+P07648+P08394); assay: E. coli RecBCD inhibitors, dose response, counter-screen for AddAB inhibitor project, absorbance, V66 E. coli, mutant T4 phage (AID 492957); type: functional, cell-based, Escherichia coli str. K-12 substr. MG1655
T5 sequence (P04993 whole entry): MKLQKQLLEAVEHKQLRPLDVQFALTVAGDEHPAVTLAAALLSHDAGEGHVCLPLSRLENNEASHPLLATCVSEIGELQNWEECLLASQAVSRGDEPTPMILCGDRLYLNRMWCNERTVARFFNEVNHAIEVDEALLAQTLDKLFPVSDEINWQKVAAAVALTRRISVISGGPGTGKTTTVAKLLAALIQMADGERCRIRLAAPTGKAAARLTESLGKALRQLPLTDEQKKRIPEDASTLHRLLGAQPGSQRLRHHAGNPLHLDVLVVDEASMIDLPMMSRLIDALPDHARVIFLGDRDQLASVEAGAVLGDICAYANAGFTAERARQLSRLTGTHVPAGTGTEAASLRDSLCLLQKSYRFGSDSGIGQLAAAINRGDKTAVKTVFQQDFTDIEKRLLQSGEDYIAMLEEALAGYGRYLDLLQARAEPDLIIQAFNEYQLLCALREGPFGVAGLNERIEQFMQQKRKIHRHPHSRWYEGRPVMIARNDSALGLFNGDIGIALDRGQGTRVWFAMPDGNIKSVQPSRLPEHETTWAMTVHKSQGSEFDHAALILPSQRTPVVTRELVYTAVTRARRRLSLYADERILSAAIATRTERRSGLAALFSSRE
T5 sequence (P07648 whole entry): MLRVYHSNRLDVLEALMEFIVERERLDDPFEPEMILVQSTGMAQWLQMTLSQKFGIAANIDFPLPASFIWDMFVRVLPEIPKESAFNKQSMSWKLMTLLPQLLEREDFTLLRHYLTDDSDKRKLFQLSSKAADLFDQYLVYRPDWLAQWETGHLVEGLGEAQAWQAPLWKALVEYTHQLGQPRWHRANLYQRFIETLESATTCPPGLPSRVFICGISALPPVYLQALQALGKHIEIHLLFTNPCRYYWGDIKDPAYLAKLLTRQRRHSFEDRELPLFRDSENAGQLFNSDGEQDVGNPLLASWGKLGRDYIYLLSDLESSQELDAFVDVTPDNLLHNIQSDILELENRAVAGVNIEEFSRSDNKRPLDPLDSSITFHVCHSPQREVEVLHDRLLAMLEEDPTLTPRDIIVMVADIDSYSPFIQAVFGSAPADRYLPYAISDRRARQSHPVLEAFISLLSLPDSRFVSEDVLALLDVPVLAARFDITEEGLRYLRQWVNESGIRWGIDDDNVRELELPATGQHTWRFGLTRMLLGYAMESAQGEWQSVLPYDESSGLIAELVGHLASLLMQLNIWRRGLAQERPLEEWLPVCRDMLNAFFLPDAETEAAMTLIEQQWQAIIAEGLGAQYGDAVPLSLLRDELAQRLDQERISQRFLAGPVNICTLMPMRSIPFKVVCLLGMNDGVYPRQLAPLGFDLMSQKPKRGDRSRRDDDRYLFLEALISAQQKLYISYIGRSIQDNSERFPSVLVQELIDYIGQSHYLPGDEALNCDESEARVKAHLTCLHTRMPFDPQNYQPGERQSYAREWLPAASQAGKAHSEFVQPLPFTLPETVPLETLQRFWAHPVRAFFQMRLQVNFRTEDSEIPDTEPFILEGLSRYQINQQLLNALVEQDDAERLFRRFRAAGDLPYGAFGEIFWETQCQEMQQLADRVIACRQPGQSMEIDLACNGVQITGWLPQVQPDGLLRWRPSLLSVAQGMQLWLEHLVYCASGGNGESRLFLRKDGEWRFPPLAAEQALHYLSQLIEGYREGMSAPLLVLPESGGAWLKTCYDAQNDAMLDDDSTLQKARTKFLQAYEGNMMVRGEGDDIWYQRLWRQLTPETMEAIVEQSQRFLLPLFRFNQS
T5 sequence (P08394 whole entry): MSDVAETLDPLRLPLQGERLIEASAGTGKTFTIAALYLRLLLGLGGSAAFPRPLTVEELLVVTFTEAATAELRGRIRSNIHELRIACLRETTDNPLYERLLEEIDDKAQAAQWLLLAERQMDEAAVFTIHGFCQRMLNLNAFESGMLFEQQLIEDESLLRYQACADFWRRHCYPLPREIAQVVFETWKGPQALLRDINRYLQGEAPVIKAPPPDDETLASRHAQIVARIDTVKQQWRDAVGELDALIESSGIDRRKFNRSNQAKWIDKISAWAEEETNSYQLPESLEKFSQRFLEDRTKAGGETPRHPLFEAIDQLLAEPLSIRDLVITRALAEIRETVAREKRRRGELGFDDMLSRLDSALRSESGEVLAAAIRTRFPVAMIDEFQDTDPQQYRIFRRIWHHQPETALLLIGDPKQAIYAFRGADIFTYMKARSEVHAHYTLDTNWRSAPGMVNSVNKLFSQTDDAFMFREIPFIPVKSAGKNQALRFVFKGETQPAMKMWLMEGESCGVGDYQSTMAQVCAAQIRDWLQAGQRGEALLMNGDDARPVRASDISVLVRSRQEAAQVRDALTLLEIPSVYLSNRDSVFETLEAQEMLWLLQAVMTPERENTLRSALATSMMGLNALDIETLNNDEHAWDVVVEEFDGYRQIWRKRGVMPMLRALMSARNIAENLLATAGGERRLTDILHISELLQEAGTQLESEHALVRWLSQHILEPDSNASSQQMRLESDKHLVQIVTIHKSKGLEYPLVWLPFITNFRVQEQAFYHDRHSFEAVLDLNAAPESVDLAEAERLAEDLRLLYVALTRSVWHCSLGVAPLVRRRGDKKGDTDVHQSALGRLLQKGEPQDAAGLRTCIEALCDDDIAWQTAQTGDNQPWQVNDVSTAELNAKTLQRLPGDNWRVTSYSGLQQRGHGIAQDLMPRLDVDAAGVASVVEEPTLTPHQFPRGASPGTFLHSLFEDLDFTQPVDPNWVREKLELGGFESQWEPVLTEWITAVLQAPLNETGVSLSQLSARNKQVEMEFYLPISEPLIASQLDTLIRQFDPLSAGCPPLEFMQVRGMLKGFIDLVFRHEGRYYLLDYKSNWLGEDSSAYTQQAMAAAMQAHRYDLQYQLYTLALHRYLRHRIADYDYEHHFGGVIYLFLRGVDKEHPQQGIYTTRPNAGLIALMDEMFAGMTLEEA

[9] = Counterscreen for AddAB inhibitors: absorbance-based bacterial cell-based high throughput dose response assay for inhibitors of bacterial viability. [Related pubchem assays (depositor defined):AID435030, AID449728, AID449731, AID488942, AID488955, AID488956]; type: functional
[10] = biological target: T6, Calpain-2 catalytic subunit (Sus scrofa, UniProt P43367); assay: pig calpain II inhibitor potency, dose response, biochemical, fluorogenic peptide substrate (AID 1420); type: functional
T6 sequence (P43367 whole entry): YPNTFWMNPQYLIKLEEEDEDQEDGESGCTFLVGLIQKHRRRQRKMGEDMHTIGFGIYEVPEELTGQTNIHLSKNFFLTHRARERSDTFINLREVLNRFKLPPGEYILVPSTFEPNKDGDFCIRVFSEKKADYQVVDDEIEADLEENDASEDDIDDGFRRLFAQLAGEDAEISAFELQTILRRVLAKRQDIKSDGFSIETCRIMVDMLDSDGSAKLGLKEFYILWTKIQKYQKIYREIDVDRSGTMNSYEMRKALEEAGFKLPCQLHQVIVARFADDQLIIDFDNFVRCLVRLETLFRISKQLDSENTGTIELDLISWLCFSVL

Cytochrome P450 2D6 = Cytochrome P450 2D6 (Homo sapiens, UniProt P10635);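 further: CYP2D6 member of a cytochrome P450 panel assay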
SUMO-activating enzyme = SUMO-activating enzyme (Homo sapiens, UniProt Q9UBT2); assay: SUMOylation inhibitor hit validation, confirmation, SUMOylation inhibitor project, biochemical, AlphaScreen (AID 2018); type: functional
Chain of SUMO-activating enzyme (Q9UBE0 whole entry): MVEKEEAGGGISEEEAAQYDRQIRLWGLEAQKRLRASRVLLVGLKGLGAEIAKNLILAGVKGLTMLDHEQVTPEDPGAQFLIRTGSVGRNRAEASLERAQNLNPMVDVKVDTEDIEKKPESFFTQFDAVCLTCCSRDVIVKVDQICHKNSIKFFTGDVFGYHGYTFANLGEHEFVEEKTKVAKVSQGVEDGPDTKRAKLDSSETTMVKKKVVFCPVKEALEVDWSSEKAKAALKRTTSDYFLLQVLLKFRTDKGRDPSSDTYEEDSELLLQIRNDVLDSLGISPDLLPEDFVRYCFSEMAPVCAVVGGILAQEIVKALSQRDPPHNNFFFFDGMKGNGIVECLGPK
Chain of SUMO-activating enzyme (Q9UBT2 whole entry): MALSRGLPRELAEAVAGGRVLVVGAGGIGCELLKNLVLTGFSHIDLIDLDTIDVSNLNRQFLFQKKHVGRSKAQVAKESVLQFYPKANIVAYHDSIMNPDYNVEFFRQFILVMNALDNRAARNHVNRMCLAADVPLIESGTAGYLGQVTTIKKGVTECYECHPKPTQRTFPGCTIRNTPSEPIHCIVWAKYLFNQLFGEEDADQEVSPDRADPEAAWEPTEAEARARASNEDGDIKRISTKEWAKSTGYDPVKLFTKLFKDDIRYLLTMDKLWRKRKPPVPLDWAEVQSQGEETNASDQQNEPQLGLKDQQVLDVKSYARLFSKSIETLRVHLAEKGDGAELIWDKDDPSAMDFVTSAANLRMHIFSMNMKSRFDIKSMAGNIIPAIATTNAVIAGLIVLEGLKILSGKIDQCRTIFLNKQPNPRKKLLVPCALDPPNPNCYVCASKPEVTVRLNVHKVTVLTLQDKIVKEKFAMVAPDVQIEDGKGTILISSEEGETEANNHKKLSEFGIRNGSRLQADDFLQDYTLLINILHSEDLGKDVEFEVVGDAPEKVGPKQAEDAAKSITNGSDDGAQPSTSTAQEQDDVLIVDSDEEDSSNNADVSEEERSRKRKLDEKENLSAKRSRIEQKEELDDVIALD

T1 sequence (P41145 whole entry): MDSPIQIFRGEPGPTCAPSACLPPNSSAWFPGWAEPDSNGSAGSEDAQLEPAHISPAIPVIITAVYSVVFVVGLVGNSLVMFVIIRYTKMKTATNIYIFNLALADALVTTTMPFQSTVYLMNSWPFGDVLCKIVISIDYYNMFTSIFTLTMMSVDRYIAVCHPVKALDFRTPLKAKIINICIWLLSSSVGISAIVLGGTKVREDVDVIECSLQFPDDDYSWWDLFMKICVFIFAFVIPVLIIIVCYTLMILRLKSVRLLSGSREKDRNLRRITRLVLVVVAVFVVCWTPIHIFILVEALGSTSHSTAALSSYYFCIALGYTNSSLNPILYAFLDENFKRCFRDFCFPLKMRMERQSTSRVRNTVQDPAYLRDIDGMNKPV
T2 sequence (Q8VNN2 whole entry): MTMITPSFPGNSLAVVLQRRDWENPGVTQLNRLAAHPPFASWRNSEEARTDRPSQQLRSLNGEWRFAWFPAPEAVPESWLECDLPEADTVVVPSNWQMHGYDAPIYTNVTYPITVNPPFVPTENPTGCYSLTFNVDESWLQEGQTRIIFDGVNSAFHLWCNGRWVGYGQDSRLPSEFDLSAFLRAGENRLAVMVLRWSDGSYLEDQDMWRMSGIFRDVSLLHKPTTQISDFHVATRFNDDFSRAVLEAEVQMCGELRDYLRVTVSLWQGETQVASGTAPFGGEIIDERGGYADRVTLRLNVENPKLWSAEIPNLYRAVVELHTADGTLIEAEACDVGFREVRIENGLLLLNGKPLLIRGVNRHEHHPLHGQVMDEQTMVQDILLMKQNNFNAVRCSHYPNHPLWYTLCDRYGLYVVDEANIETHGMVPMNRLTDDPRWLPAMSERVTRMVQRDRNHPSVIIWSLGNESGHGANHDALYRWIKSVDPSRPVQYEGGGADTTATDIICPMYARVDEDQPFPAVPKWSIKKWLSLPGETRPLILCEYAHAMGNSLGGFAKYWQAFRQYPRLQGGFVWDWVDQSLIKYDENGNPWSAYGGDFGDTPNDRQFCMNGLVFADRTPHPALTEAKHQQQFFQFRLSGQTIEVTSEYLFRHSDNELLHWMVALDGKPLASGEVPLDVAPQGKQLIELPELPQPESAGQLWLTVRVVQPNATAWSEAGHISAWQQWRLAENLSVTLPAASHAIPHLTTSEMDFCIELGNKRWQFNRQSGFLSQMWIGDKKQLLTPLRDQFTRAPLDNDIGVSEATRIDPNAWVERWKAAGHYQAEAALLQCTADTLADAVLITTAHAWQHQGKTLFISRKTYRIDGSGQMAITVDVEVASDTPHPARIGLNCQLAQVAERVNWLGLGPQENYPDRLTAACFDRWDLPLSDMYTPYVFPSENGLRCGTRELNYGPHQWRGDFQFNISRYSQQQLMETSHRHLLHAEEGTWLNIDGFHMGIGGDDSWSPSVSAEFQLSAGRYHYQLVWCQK
Chain of Cytochrome P450 2D6 (P10635 whole entry): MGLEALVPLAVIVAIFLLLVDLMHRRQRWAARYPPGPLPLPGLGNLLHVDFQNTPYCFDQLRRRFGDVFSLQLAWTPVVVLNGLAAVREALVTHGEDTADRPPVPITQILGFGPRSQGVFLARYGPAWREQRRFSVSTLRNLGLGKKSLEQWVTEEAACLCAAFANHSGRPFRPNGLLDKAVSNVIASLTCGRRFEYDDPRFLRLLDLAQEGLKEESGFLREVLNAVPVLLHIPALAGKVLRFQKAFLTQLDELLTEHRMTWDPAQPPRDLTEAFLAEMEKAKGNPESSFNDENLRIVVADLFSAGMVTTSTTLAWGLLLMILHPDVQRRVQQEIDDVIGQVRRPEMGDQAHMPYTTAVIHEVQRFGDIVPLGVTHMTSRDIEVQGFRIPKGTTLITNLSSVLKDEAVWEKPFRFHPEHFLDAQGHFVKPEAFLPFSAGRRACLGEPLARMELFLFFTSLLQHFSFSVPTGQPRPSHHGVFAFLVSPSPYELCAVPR

N=C1SCC(=O)N1c1ncc(Cc2ccc(F)cc2)s1
EC50 (Streptococcus): 2.21 µM (active) | IC50 [1]: > 32 µM | IC50 (Beta-galactosidase [2]): > 66.6 µM (inactive) | EC50 [3]: 0.949 µM (active) | EC50 (Beta-galactosidase [4]): > 31.5 µM (inactive) | IC50 [5]: 7.35 µM (active)

CC(C)n1c(=O)[nH][nH]c1=S
IC50 [6]: > 49.8 µM (inactive) | IC50 [7]: 34.4 µM (inactive) | IC50 (CHO-K1): > 66.2 µM (inactive) | IC50 [8]: 7.04 µM (active)

Cc1cc(C)c(C#N)c(SCc2ccc([N+](=O)[O-])cc2)n1
IC50 (Coagulation factor XII): > 50 µM (inactive)

NC(=S)N/N=C/c1ncc(C(F)(F)F)cc1Cl
AC50 (HEK293): 10.2 µM (active) | IC50 (Exodeoxyribonuclease V): > 119 µM (inactive) | IC50 [1]: > 32 µM | IC50 [9]: > 119 µM (inactive) | EC50 (Beta-galactosidase [4]): > 31.5 µM (inactive) | IC50 [5]: 22.2 µM (inactive)

Cc1ccsc1C(=O)NCCC(c1ccccc1)c1ccccc1
IC50 [10]: 0.719 µM (not active) | IC50 (Coagulation factor XII): > 50 µM (inactive)

COc1ccc(CNC(=O)COC(=O)[C@H](Cc2c[nH]c3ccccc23)NC(=O)c2cccs2)cc1
IC50 [6]: 12.8 µM (inactive) | IC50 [7]: 13.1 µM (inactive) | IC50 (CHO-K1): > 66.2 µM (inactive) | IC50 [8]: 26.9 µM (inactive)

CN(C)S(=O)(=O)Oc1ccsc1C(=O)Nc1cccc(Cl)c1
AC50 (Cytochrome P450 2D6): 25.1 µM (inconclusive) | IC50 (Coagulation factor XII): > 50 µM (inactive)

COc1ccc(C2C(C(=O)Nc3ccccc3OC)=C(C)Nc3ncnn32)cc1 (configuration not stated)
IC50 (Coagulation factor XII): > 50 µM (inactive)

COc1ccc(-c2nc3cc([N+](=O)[O-])ccc3[nH]2)cc1
IC50 (SUMO-activating enzyme): 35 µM (active)
